Assays:
DC-SIGN (ECD) [1] = target: T1, DC-SIGN (ECD) (Homo sapiens, UniProt Q9NNX6); experiment: 19F-R2 filtered NMR KD determination of the spy molecule; assay type: binding; settings: spy molecule with DC-SIGN; fast-exchange regime, τCPMG 1 ms
T1 construct: DC-SIGN full extracellular domain (ECD, residues 70-404, Thermo Fischer Scientific); made in house
T1 sequence (Q9NNX6 70-404): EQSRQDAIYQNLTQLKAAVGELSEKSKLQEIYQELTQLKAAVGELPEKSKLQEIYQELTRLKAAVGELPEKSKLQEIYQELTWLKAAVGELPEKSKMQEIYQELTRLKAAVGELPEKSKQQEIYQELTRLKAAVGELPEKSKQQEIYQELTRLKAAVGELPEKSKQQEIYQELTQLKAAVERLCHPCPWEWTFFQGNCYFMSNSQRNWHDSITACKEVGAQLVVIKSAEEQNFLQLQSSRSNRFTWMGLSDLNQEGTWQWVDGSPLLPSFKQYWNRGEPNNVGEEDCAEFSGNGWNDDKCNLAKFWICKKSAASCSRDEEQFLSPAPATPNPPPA
Protocol: (§1) For KD estimation of 6-deoxy-6-F-Man (the spy-molecule), the free evolution delay was set to an optimized value τ=1 ms , after using relaxation dispersion experiments to assure a negligible chemical exchange contribution to R2,obs (Figure S1a). The KI of 1, 1b-d, 2, and 3 with DC-SIGN (ECD) was determined by titration experiments in a competitive fashion. Increasing amounts of the competitor molecules (compounds 1, 1b-d, 2, and 3) were added to a solution mixture of the spy molecule and the protein in each case, calculating the R2,obs of the spy molecule at each competitor concentration while the ratio [Spy-molecule]/[Protein] is fixed (40:1) (Figure S1c).
(§2) 19F-R2 filtered experiments
The KD of compounds 1, 1b-d, 2 and 3 was estimated applying a 19F-R2 filtered approach. […] Relaxation rates R2 were determined employing a CPMG pulse sequence, by fitting the observed 19F signal intensity to the exponential decay curve: […]
(§3) [ܲ]் + [ܮ]் + ܭ஽ − ඥ([ܲ]் + [ܮ]் + ܭ஽)ଶ − 4[ܲ]்[ܮ]் (3) where [ܲ]் and [ܮ]் are the total protein and ligand concentrarion respectively, [ܴ]ଶ,௙ and [ܴ]ଶ,௕ are the relaxation rates in the free and bound states, ݌௕ is the fraction of bound ligand and ܭ஽ the dissociation constant of the protein-ligand complex. [ܴ]ଶ,௙ of 6-F-ManαOMe was measured in absence of the lectin, and Equation 2 was used to estimate ܭ஽and [ܴ]ଶ,௕ for the […]

DC-SIGN (ECD) [2] = target: T1, DC-SIGN (ECD); experiment: competitive 19F-R2 filtered NMR experiments (spy molecule 6-F-ManαOMe); assay type: binding; settings: for weaker ligand relative to best binders (1b, 1c, 1d): fold loss of affinity from KI values; for Ki: non-linear least squares fitting, [6-F-ManαOMe] 400 µM, [DC-SIGN (CRDs)] 10 µM, 298 K, pH 8.0; for loss in affinity versus the trisaccharide 1: fluorinated disaccharides versus 1
Source text: In order to gain insights into the effects that the different fluorination patterns may have in the binding event, the affinities of 1b, the natural analogue of 1, as well as 1c and 1d, two partially fluorinated trisaccharides, were also estimated. (Table 2, Figure S1).
as §1, §2
The KD of compounds 1, 1b-d, 2 and 3 was estimated applying a 19F-R2 filtered approach. 6-F-ManαOMe, which weakly binds to DC-SIGN, was selected as the spy molecule. Relaxation rates R2 were determined employing a CPMG pulse sequence, by fitting the observed 19F signal intensity to the exponential decay curve:
ܫ(ݐ) = ܫ଴݁ି௧ோమ = ܫ଴݁ି௡ଶఛோమ (1) where ܫ(ݐ) refers to intensity at time ݐ, ܫ଴ is intensity at ݐ = 0, and ܴଶ is the transversal relaxation rate (ܴଶ = 1/ܶଶ).
In the limit of fast-exchange where the exchange contribution to the observed transversal relaxation rate ܴଶ,௢௕௦ is insignificant (Figure S1, a)), the following equations apply:
ܴଶ,௢௕௦ = ܴଶ,௙ + ൫ܴଶ,௕ − ܴଶ,௙൯݌௕ (2)
as §3
Then, ܭூ of compounds 1, 1b-d, 2 and 3 was measured in a competitive manner. ܴଶ,௢௕௦ of 6-F-ManαOMe (spy molecule) in solution with DC-SIGN ECD was monitored at 5 different competitor concentrations ([ܫ]) in each case with a fixed [ܲ]்/[ܮ]் ratio (Figure S1, c)), to derive ܭூ by fitting to Equation 2 with ݌௕ as defined in Equations (4) and (5) (Table 2):
݌௕ = 3ܭ + 2 cos൫ߠൗ ൯ √ܽଶ − 3ܾ − ܽ (4)
ߠ = cos ൬ ଶඥ(௔మିଷ௕)య ൰, ܽ = ܭ஽ + ܭூ + [ܮ]் + [ܫ]் − [ܲ]், ܾ = ([ܫ]் − [ܲ]்)ܭ஽ + ([ܮ]் − [ܲ]்)ܭ஽ + ܭூܭ஽, ܿ = −ܭூܭ஽[ܲ]்
Figure S1. 19F-R2 filtered experiments. a) Relaxation dispersion experiment for 6-F-ManαOMe (the spy molecule). R2,obs of the 19F nucleus is measured for different values of ωCPMG. Ligand and protein sample concentrations were: [6-F-ManαOMe] = 400 µM, [DC-SIGN (CRDs)] = 10 µM (counting concentration of CRDs, i.e, 4 CRDs per DC-SIGN ECD tetramer). For ωCPMG > 1000 s-1, there is virtually negligible exchange contribution to R2. Therefore, all the subsequent R2 filtered experiments were carried out with τCPMG = 1/ωCPMG = 1 ms. b) KD determination of 6-F-ManαOMe with DC-SIGN. R2,obs was measured for increasing amounts of [6-F-ManαOMe]/[DC-SIGN (CRDs)] (blue dots). KD and R2,b were obtained from fitting to Equation 2, which is valid in the fast-exchange regime (Rex = 0) [39a]. The predicted values at each [6-F-ManαOMe]/[DC-SIGN (CRDs)] are shown as red stars for comparison c) Titration curves showing the variation in 19F-R2,obs of the spy molecule 6-F-ManαOMe, when increasing amounts of the competitors (I) 1, 1b-d, 2 and 3 are added to a mixture [6-F-ManαOMe] = 400 µM, [DC-SIGN (CRDs)] = 10 µM. […]

DC-SIGN (ECD tetramer) = target: T2, DC-SIGN (ECD tetramer) (Homo sapiens, UniProt Q9NNX6); experiment: 2D-STD-TOCSYreF NMR experiments (binding epitope); settings: for total relative STD per Man ring: normalized to the global observed STD; for % STD (normalized): normalized to largest STD in each molecule
T2 construct: DC-SIGN full extracellular domain (ECD, residues 70-404, Thermo Fischer Scientific); made in house
T2 sequence (Q9NNX6 70-404): T1 sequence (Q9NNX6 70-404)
Source text: The interaction between DC-SIGN and the three Man-based 2-deoxy-fluoro oligosaccharides (Figure 1) was first analyzed using 2D-STD-TOCSYreF experiments (Figure 2). A long TOCSY mixing time (128 ms) was used to extend the polarization to all protons within the same spin system for each Man ring. The enhanced resolution of the 2D-TOCSYreF allowed the assignment of most of the STD NMR cross peaks with high reliability for the three fluorinated compounds (Figure 2 and Table 1). Generally speaking, the inherent loss of sensitivity due to the heteronuclear reF transfer in the 2D-STD-TOCSYreF experiments is overcompensated by the gained spectral dispersion.
Figure 2 2D-TOCSYreF off-resonance spectrum (red) and 2D-STD-TOCSYreF peaks (blue) obtained for 1 (top panel), 2 (central panel) and 3 (bottom panel) in the presence of DC-SIGN. The ^19F NMR frequencies are given in the abscissa axis and the ^1H NMR frequencies in the ordinate axis. The STD cross peaks are shifted to high field in the ^19F frequency to facilitate visual inspection. Every blue cross peak corresponds to the STD NMR intensity of the particular ^1H NMR nucleus in a given monosaccharide, which is encoded by the ^19F frequency. The ligand concentration was 1.4 mM in each case, with 9.14 μM of DC-SIGN tetramer, thus containing four carbohydrate recognition domains (CRD) (ligand/protein-CRD ratio is 38:1). The on-resonance irradiation was set to 0.85 ppm, with a saturation time of 2 s. The relative STD values, shown by colored circles, are obtained from the ratio between the corresponding peaks in the 2D STD-TOCSY-reF and 2D-TOCSYreF off-resonance spectra, and normalized to the largest STD in each molecule. The circles connected by a colored thin line correspond to overlapped signals in the spectrum, so that the STD intensity is shown as ‘spread’ between the corresponding ^1H nuclei (meaning each of these protons may contribute or not to the total STD observed). In this case, the added STD intensity is given. The total relative STD per Man ring for each molecule is also specified with a colored tag, using the same color code as the circles. TEXT PRINTED IN THE PICTURE: 1: % STD (Man II): 44 %; % STD (Man III): 9 %; % STD (Man I): 47 % | 2: % STD (Man III): 11 %; % STD (Man I): 89 % | 3: % STD (Man II): 70 %; % STD (Man III): 30 % DOUBTS OF THE COPYIST ABOUT THIS PICTURE: The percent tags are matched to the Man I/II/III rings by position and colour only. The measure '% STD' is printed only at the colour bar. / The percent tags are relative STD-NMR values per sugar ring (binding epitope), so it is uncertain whether they count as a result or belong to the excluded spectra.
Samples for the 2D STD-TOCSY-reF contained 9.14 µM ECD (tetramer) and 153 eq. of ligand (1.4 mM, the ratio ligand/protein (CRD) is 38:1) in each case. The 2D STD-TOCSY-reF setup consists on a proton saturation transfer scheme (^1Hprotein→^1Hligand-STD) with subsequent evolution through JHH couplings (TOCSY), to finally refocus the STD-edited information in the ^19F dimension (reF). As STD parameters, selective saturation was applied for 2 s using 90º PC9 pulses of 10 ms length, with on-resonance saturation set at 0.85 ppm and off-resonance at 60 ppm. The TOCSY mixing time used was 128 ms, and the corresponding JHF evolution and refocusing delays in the reF module were Δ^H = 10.4 ms and Δ^F = 6 ms, respectively. The relative saturation values (%) were calculated from the ratio between peaks in the 2D STD-TOCSY-reF spectrum and the corresponding ones in the off-resonance TOCSY-reF spectrum.

[3] = proton ManI-1, ligand 1.4 mM, 9.14 µM tetramer, 2 s saturation at 0.85 ppm

| weaker ligand relative to best binders (1b, 1c, 1d) (DC-SIGN (ECD) [2]) | Ki (DC-SIGN (ECD) [2]) [mM] | total relative STD per Man ring (DC-SIGN (ECD tetramer); Man I ring) [%] | total relative STD per Man ring (DC-SIGN (ECD tetramer); Man II ring) [%] | total relative STD per Man ring (DC-SIGN (ECD tetramer); Man III ring) [%] | % STD (normalized) (DC-SIGN (ECD tetramer); overlapped protons ManII-3/6) [%] | % STD (normalized) (DC-SIGN (ECD tetramer); overlapped protons ManII-4/5) [%] | % STD (normalized) (DC-SIGN (ECD tetramer); [3]) [%] | % STD (normalized) (DC-SIGN (ECD tetramer); proton ManI-2) [%] | % STD (normalized) (DC-SIGN (ECD tetramer); proton ManI-3) [%] | % STD (normalized) (DC-SIGN (ECD tetramer); proton ManII-1) [%] | % STD (normalized) (DC-SIGN (ECD tetramer); proton ManII-2) [%] | loss in affinity versus the trisaccharide 1 (DC-SIGN (ECD) [2]) | % STD (normalized) (DC-SIGN (ECD tetramer); proton ManIII-1) [%] | % STD (normalized) (DC-SIGN (ECD tetramer); proton ManIII-2) [%] | Structure (SMILES) | further results |
| --- | --- | --- | --- | --- | --- | --- | --- | --- | --- | --- | --- | --- | --- | --- | --- | --- |
| – | – | – | – | – | – | – | – | – | – | – | – | – | – | – | CO[C@H]1O[C@H](CF)[C@@H](O)[C@H](O)[C@@H]1O [6-F-ManαOMe] | Kd (DC-SIGN (ECD) [1]): 1.3 mM |
| two-fold weaker | 2.5 | 47 | 44 | 9 | 47 | 52 | 16 | 42 | 100 | 19 | 31 | – | – | – | CO[C@H]1O[C@H](CO[C@H]2O[C@H](CO)[C@@H](O)[C@H](O)[C@@H]2F)[C@@H](O)[C@H](O[C@H]2O[C@H](CO)[C@@H](O)[C@H](O)[C@@H]2F)[C@@H]1F [compound 1] | binding free energy difference (DC-SIGN (ECD) [2]; corresponding to the variation in affinity of 1 versus 1b): ca. 1 kcal/mol; variation in binding affinity (DC-SIGN (ECD) [2]; trifluorinated 1 versus 1b): 2.5 fold; % STD (normalized) (DC-SIGN (ECD tetramer); overlapped protons ManIII-1/2): 31% |
| nine- | 9.6 | 89 | – | 11 | – | – | 15 | 33 | 74 | – | – | ca. four-fold | 17 | 14 | CO[C@H]1O[C@H](CO)[C@@H](O)[C@H](O[C@H]2O[C@H](CO)[C@@H](O)[C@H](O)[C@@H]2F)[C@@H]1F [compound 2] | % STD (normalized) (DC-SIGN (ECD tetramer); proton ManI-4): 100%; % STD (normalized) (DC-SIGN (ECD tetramer); proton ManI-5): 22% |
| four-fold weaker | 4 | – | 70 | 30 | 86 | 100 | – | – | – | 31 | 45 | ca. two-fold | 33 | 31 | CO[C@H]1O[C@H](CO[C@H]2O[C@H](CO)[C@@H](O)[C@H](O)[C@@H]2F)[C@@H](O)[C@H](O)[C@@H]1F [compound 3] | % STD (normalized) (DC-SIGN (ECD tetramer); overlapped protons ManIII-3/4/5/6): 47% |
